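Interpolation was linear, between the two tested concentrations surrounding the appropriate level; five concentrations were tested over 48 hours in 96-well plates. Definition used: TGI = concentration required for complete inhibition of growth.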 Where a SMILES comes first, the peptide text is derived from it. The star is where a group is joined. Boc = CC(C)(C)OC(=O)*
Legend:
Test in all cases: growth of human tumour cells (NCI), 48 h
[1] = system: 786-0 renal
[2] = system: A498 renal
[3] = system: A549 NSCLC
[4] = system: ACHN renal
[5] = system: BT-549 breast
[6] = system: CAKI-1 renal
[7] = system: CCRF-CEM leukemia
[8] = system: DU-145 prostate
[9] = system: EKVX NSCLC
[10] = system: HCC-2998 colon
[11] = system: HCT-116 colon
[12] = system: HCT-15 colon
[13] = system: HL-60(TB) leukemia
[14] = system: HOP-62 NSCLC
[15] = system: HS 578T breast
[16] = system: HT29 colon
[17] = system: IGROV1 ovarian
[18] = system: K-562 leukemia
[19] = system: KM12 colon
[20] = system: LOX IMVI melanoma
[21] = system: M14 melanoma
[22] = system: MALME-3M melanoma
[23] = system: MCF7 breast
[24] = system: MDA-MB-231 breast
[25] = system: MDA-N
[26] = system: MOLT-4 leukemia
[27] = system: NCI-H226 lung
[28] = system: NCI-H23 lung
[29] = system: NCI-H460 lung
[30] = system: NCI-H522 lung
[31] = system: OVCAR-3 ovarian
[32] = system: OVCAR-4 ovarian
[33] = system: OVCAR-5 ovarian
[34] = system: OVCAR-8 ovarian
[35] = system: PC-3 prostate
[36] = system: RPMI-8226 leukemia
[37] = system: RXF 393 renal
[38] = system: SF-268 CNS
[39] = system: SF-295 CNS
[40] = system: SF-539 CNS
[41] = system: SK-MEL-28 melanoma
[42] = system: SK-MEL-5 melanoma
[43] = system: SN12C renal
[44] = system: SNB-19 CNS
[45] = system: SNB-75 CNS
[46] = system: SR leukemia
[47] = system: SW-620 colon
[48] = system: T-47D breast
[49] = system: TK-10 renal
[50] = system: U251 CNS
[51] = system: UACC-257 melanoma
[52] = system: UO-31 renal
[53] = system: MDA-MB-435
[54] = system: SK-MEL-2 melanoma
[55] = system: UACC-62 melanoma

Question: For `O=C(c1cc(Cl)ccc1Cl)N1CCN(c2cccc(Cl)c2)CC1`, which TGI [1] is on record?
Answer: The TGI was 34 µM.

Question: And the TGI [2]?
Answer: Its TGI is 34.8 µM.

Question: And the TGI [3]?
Answer: The TGI was 42.6 µM.

Question: And the TGI [4]?
Answer: The TGI was 76.5 µM.

Question: And the TGI [5]?
Answer: Its TGI is 23.1 µM.

Question: And the TGI [6]?
Answer: Its TGI is greater than 100 µM.

Question: What about the TGI [7] of the same molecule?
Answer: The TGI was 59.7 µM.

Question: What about the TGI [8] of the same molecule?
Answer: The TGI was greater than 100 µM.

Question: What about the TGI [9] of the same molecule?
Answer: Its TGI is 96.5 µM.

Question: And the TGI [10]?
Answer: Its TGI is 39.5 µM.

Question: And the TGI [11]?
Answer: The TGI was 24.1 µM.

Question: And the TGI [12]?
Answer: Its TGI is greater than 100 µM.

Question: What about the TGI [13] of the same molecule?
Answer: The TGI was greater than 100 µM.

Question: What about the TGI [14] of the same molecule?
Answer: The TGI was 61.5 µM.

Question: What about the TGI [15] of the same molecule?
Answer: The TGI was 65.8 µM.

Question: What about the TGI [16] of the same molecule?
Answer: Its TGI is 27.1 µM.

Question: And the TGI [17]?
Answer: The TGI was 56.8 µM.

Question: And the TGI [18]?
Answer: Its TGI is 16.2 µM.

Question: What about the TGI [19] of the same molecule?
Answer: Its TGI is 20 µM.

Question: And the TGI [20]?
Answer: The TGI was 25.5 µM.

Question: And the TGI [21]?
Answer: Its TGI is greater than 100 µM.

Question: And the TGI [22]?
Answer: The TGI was 28.6 µM.

Question: What about the TGI [23] of the same molecule?
Answer: Its TGI is greater than 100 µM.

Question: And the TGI [24]?
Answer: The TGI was 20.3 µM.

Question: And the TGI [25]?
Answer: The TGI was 5.62 µM.

Question: What about the TGI [26] of the same molecule?
Answer: Its TGI is 37 µM.

Question: And the TGI [27]?
Answer: Its TGI is 42.6 µM.

Question: And the TGI [28]?
Answer: Its TGI is greater than 100 µM.

Question: What about the TGI [29] of the same molecule?
Answer: Its TGI is 31.5 µM.

Question: What about the TGI [30] of the same molecule?
Answer: The TGI was 30.4 µM.

Question: And the TGI [31]?
Answer: Its TGI is 38 µM.

Question: And the TGI [32]?
Answer: Its TGI is greater than 100 µM.

Question: What about the TGI [33] of the same molecule?
Answer: Its TGI is greater than 100 µM.

Question: And the TGI [34]?
Answer: Its TGI is 38.9 µM.

Question: And the TGI [35]?
Answer: The TGI was 6.22 µM.

Question: And the TGI [36]?
Answer: The TGI was greater than 100 µM.

Question: What about the TGI [37] of the same molecule?
Answer: The TGI was 27.5 µM.

Question: And the TGI [38]?
Answer: The TGI was greater than 100 µM.

Question: What about the TGI [39] of the same molecule?
Answer: Its TGI is 25.6 µM.

Question: And the TGI [40]?
Answer: The TGI was 31.4 µM.

Question: What about the TGI [41] of the same molecule?
Answer: The TGI was 81.9 µM.

Question: What about the TGI [42] of the same molecule?
Answer: The TGI was 19.3 µM.

Question: And the TGI [43]?
Answer: The TGI was 20.2 µM.

Question: What about the TGI [44] of the same molecule?
Answer: The TGI was greater than 100 µM.

Question: And the TGI [45]?
Answer: The TGI was greater than 100 µM.

Question: What about the TGI [46] of the same molecule?
Answer: The TGI was greater than 100 µM.

Question: What about the TGI [47] of the same molecule?
Answer: Its TGI is 94.8 µM.

Question: What about the TGI [48] of the same molecule?
Answer: The TGI was greater than 100 µM.

Question: What about the TGI [49] of the same molecule?
Answer: The TGI was greater than 100 µM.

Question: What about the TGI [50] of the same molecule?
Answer: The TGI was 62 µM.

Question: What about the TGI [51] of the same molecule?
Answer: Its TGI is 50.3 µM.

Question: And the TGI [52]?
Answer: The TGI was 58.9 µM.

Question: For `CC(C)(C)OC(=O)NC(Cc1ccc(O)cc1)C(=O)NC(CCCCN)C(=O)O` (stereo not drawn) (Boc-Tyr-Lys-OH; configuration not given here), which TGI [1] is on record?
Answer: The TGI was greater than 100 µM.

Question: And the TGI [2]?
Answer: The TGI was 92.4 µM.

Question: What about the TGI [3] of the same molecule?
Answer: Its TGI is greater than 100 µM.

Question: What about the TGI [4] of the same molecule?
Answer: Its TGI is 65.1 µM.

Question: And the TGI [5]?
Answer: Its TGI is 80.5 µM.

Question: What about the TGI [7] of the same molecule?
Answer: Its TGI is 92.7 µM.

Question: What about the TGI [8] of the same molecule?
Answer: Its TGI is 80.3 µM.

Question: And the TGI [10]?
Answer: Its TGI is 65.3 µM.

Question: And the TGI [11]?
Answer: Its TGI is 40.9 µM.

Question: What about the TGI [13] of the same molecule?
Answer: The TGI was 52.8 µM.

Question: What about the TGI [14] of the same molecule?
Answer: Its TGI is 39 µM.

Question: And the TGI [16]?
Answer: The TGI was greater than 100 µM.

Question: And the TGI [17]?
Answer: The TGI was 37.1 µM.

Question: What about the TGI [18] of the same molecule?
Answer: The TGI was greater than 100 µM.

Question: And the TGI [20]?
Answer: Its TGI is 28.2 µM.

Question: And the TGI [21]?
Answer: The TGI was 56 µM.

Question: What about the TGI [22] of the same molecule?
Answer: The TGI was 76.6 µM.

Question: And the TGI [23]?
Answer: Its TGI is greater than 100 µM.

Question: And the TGI [24]?
Answer: The TGI was 61.8 µM.

Question: What about the TGI [53] of the same molecule?
Answer: The TGI was greater than 100 µM.

Question: And the TGI [25]?
Answer: The TGI was greater than 100 µM.

Question: What about the TGI [26] of the same molecule?
Answer: The TGI was 94.7 µM.

Question: What about the TGI [27] of the same molecule?
Answer: The TGI was greater than 100 µM.

Question: And the TGI [28]?
Answer: Its TGI is 48.6 µM.

Question: And the TGI [29]?
Answer: The TGI was 66.2 µM.

Question: And the TGI [30]?
Answer: The TGI was 26.5 µM.

Question: And the TGI [31]?
Answer: The TGI was 66.3 µM.

Question: And the TGI [32]?
Answer: Its TGI is 48.1 µM.

Question: And the TGI [33]?
Answer: Its TGI is 84.9 µM.

Question: And the TGI [34]?
Answer: The TGI was greater than 100 µM.

Question: What about the TGI [35] of the same molecule?
Answer: The TGI was greater than 100 µM.

Question: And the TGI [36]?
Answer: The TGI was 84.5 µM.

Question: What about the TGI [38] of the same molecule?
Answer: The TGI was greater than 100 µM.

Question: What about the TGI [54] of the same molecule?
Answer: The TGI was 35.1 µM.

Question: And the TGI [41]?
Answer: Its TGI is 56.1 µM.

Question: What about the TGI [42] of the same molecule?
Answer: The TGI was greater than 100 µM.

Question: What about the TGI [43] of the same molecule?
Answer: The TGI was 42.3 µM.

Question: And the TGI [44]?
Answer: The TGI was 53.2 µM.

Question: And the TGI [45]?
Answer: Its TGI is 77 µM.

Question: What about the TGI [46] of the same molecule?
Answer: The TGI was 77.3 µM.

Question: What about the TGI [47] of the same molecule?
Answer: The TGI was greater than 100 µM.

Question: What about the TGI [48] of the same molecule?
Answer: The TGI was 53.1 µM.

Question: What about the TGI [49] of the same molecule?
Answer: The TGI was greater than 100 µM.

Question: And the TGI [50]?
Answer: Its TGI is 43.5 µM.

Question: And the TGI [51]?
Answer: The TGI was 83.5 µM.

Question: And the TGI [55]?
Answer: The TGI was 31.5 µM.

Question: And the TGI [52]?
Answer: The TGI was 54 µM.

— PubChem BioAssay (NCI)
